Reference: US20220282217A1, “COMPOSITIONS AND METHODS FOR PREPARING T CELL COMPOSITIONS AND USES THEREOF” (priority 2019, published 2022)
Read-outs that look alike come from different tables or passages of the source. Where a SMILES comes first, the peptide text is derived from it.

Columns and labels:
HLA-A02.01 [1] = target: T1, HLA-A02.01 (Homo sapiens, UniProt P04439, D140Y/D185E/D98H/E176V/E277Q/G131W/G231S/I119V/I121R/I166T/I218V/N151K/N90K/P208A/P217A/Q86G/Q94H/R138H/R169H); test: Class I MHC peptide binding stability (pMHC-I dissociation, 125I-labeled light chain); settings: for Stability (T1/2 (h)): allele A02.01
T1 construct: made in house; host or cells: E. coli

HLA-A02.01 [2] = target: HLA-A02.01 (Homo sapiens, UniProt P04439, D140Y/D185E/D98H/E176V/E277Q/G131W/G231S/I119V/I121R/I166T/I218V/L300P/L318F/N151K/N90K/P208A/P217A/Q86G/Q94H/R138H/R169H/T345S); test: Class I MHC peptide binding affinity (displacement of radiolabeled reference peptide)
Outline: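 Radiolabeled reference peptide/MHCI complexes; test peptide titration, 2 d incubation; bound label remaining read by size-exclusion gel filtration.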

[3] = allele A02.01, read-out: Observed Affinity (IC50, (nM))

| SMILES | Stability (T1/2 (h)) (HLA-A02.01 [1]) | IC50 (HLA-A02.01 [2]; [3]) | Measured stability (HLA-A02.01 [1]; HLA Allele A02.01, time for half of the complexes to dissociate at 37° C.) | IC50 (HLA-A02.01 [2]; Measured Affinity (nM), HLA Allele A02.01) | IC50 (HLA-A02.01 [2]; Observed Affinity (IC50, (nM)), allele A02.01) |
| --- | --- | --- | --- | --- | --- |
| CSCC[C@H](NC(=O)[C@H](CCC(=O)O)NC(=O)[C@H](CC(C)C)NC(=O)[C@H](CC(C)C)NC(=O)[C@H](CC(C)C)NC(=O)[C@H](CC(=O)O)NC(=O)[C@H](CO)NC(=O)[C@H](CC(C)C)NC(=O)[C@@H]1CCCN1)C(=O)O (H-PLSDLLLEM-OH; N-terminus and C-terminus assumed) | 2.7 h | 404 nM |  |  |  |
| CC(C)C[C@H](NC(=O)[C@H](CO)NC(=O)[C@H](CC(N)=O)NC(=O)[C@H](CS)NC(=O)[C@H](CCC(=O)O)NC(=O)[C@H](Cc1c[nH]cn1)NC(=O)[C@H](CC(C)C)NC(=O)[C@@H](NC(=O)[C@@H](N)CCC(N)=O)C(C)C)C(=O)O | 0.5 h | 7770 nM |  |  |  |
| CC[C@H](C)[C@H](NC(=O)[C@H](CC(C)C)NC(=O)[C@H](Cc1c[nH]cn1)NC(=O)[C@@H](NC(=O)[C@H](CO)NC(=O)[C@H](CC(C)C)NC(=O)[C@H](CC(C)C)NC(=O)[C@@H](N)C(C)C)C(C)C)C(=O)N[C@H](C(=O)O)C(C)C (H-VLLSVHLIV-OH; N-terminus and C-terminus assumed) | 11 h | 72 nM |  |  |  |
| CSCC[C@H](NC(=O)[C@H](CCC(=O)O)NC(=O)[C@H](CC(C)C)NC(=O)[C@H](CC(C)C)NC(=O)[C@H](CC(C)C)NC(=O)CN)C(=O)N[C@@H](CC(C)C)C(=O)N[C@@H](CC(=O)O)C(=O)N[C@@H](C)C(=O)O (H-GLLLEMLDA-OH; N-terminus and C-terminus assumed) | 0.4 h | 558 nM |  |  |  |
| CC(C)C[C@H](N)C(=O)N[C@H](C(=O)N[C@H](C(=O)N[C@H](C(=O)NCC(=O)N[C@@H](C)C(=O)N[C@@H](CC(=O)O)C(=O)NCC(=O)N[C@H](C(=O)O)C(C)C)C(C)C)C(C)C)C(C)C (H-LVVVGADGV-OH; N-terminus and C-terminus assumed) |  |  | 0.0 h | 977 nM | 1190 nM |

Further molecules by falling IC50 (HLA-A02.01 [2]; [3]), results first:

| Stability (T1/2 (h)) (HLA-A02.01 [1]) | IC50 (HLA-A02.01 [2]; [3]) | SMILES | Measured stability (HLA-A02.01 [1]; HLA Allele A02.01, time for half of the complexes to dissociate at 37° C.) | IC50 (HLA-A02.01 [2]; Measured Affinity (nM), HLA Allele A02.01) | IC50 (HLA-A02.01 [2]; Observed Affinity (IC50, (nM)), allele A02.01) |
| --- | --- | --- | --- | --- | --- |
| 0.9 h | 2010 nM | CSCC[C@H](NC(=O)[C@H](CCC(=O)O)NC(=O)[C@H](CC(C)C)NC(=O)[C@H](CC(C)C)NC(=O)[C@H](CC(C)C)NC(=O)[C@H](CC(=O)O)NC(=O)[C@H](CS)NC(=O)[C@H](CC(C)C)NC(=O)[C@@H]1CCCN1)C(=O)N[C@@H](CC(C)C)C(=O)O (H-PLCDLLLEML-OH; N-terminus and C-terminus assumed) |  |  |  |
| 0.7 h | 640 nM | CSCC[C@H](NC(=O)[C@H](CCC(=O)O)NC(=O)[C@H](CC(C)C)NC(=O)[C@H](CC(C)C)NC(=O)[C@H](CC(C)C)NC(=O)CNC(=O)[C@H](Cc1ccc(O)cc1)NC(=O)[C@H](CC(C)C)NC(=O)[C@@H]1CCCN1)C(=O)O (H-PLYGLLLEM-OH; N-terminus and C-terminus assumed) |  |  |  |
| 8.9 h | 311 nM | CSCC[C@H](NC(=O)[C@H](CC(C)C)NC(=O)[C@H](CCC(=O)O)NC(=O)[C@H](CCSC)NC(=O)[C@@H](N)CC(C)C)C(=O)N[C@@H](C)C(=O)NCC(=O)NCC(=O)N[C@@H](CC(=O)O)C(=O)N[C@@H](CC(C)C)C(=O)O (H-LMELMAGGDL-OH; N-terminus and C-terminus assumed) |  |  |  |
| 4.2 h | 151 nM | CSCC[C@H](NC(=O)[C@H](CCC(=O)O)NC(=O)[C@H](CC(C)C)NC(=O)[C@H](CC(C)C)NC(=O)[C@H](CC(C)C)NC(=O)[C@H](CC(=O)O)NC(=O)[C@H](CC(N)=O)NC(=O)[C@H](CC(C)C)NC(=O)[C@@H]1CCCN1)C(=O)O (H-PLNDLLLEM-OH; N-terminus and C-terminus assumed) |  |  |  |
| 12.8 h | 68 nM | CC(C)C[C@H](NC(=O)[C@@H](N)CC(C)C)C(=O)N[C@@H](C)C(=O)N[C@@H](Cc1ccccc1)C(=O)N[C@@H](Cc1c[nH]c2ccccc12)C(=O)N[C@@H](CC(=O)O)C(=O)N[C@@H](CO)C(=O)N[C@@H](CCC(N)=O)C(=O)N[C@H](C(=O)O)C(C)C (H-LLAFWDSQV-OH; N-terminus and C-terminus assumed) |  |  |  |
